Entries after “also recorded” stand apart in the source; their conditions may differ. Values belong to the molecule of their own block, whether it stands above or below them.
Tests used:
[1] = system: MH3924A Morris hepatoma cells; assay: Intracellular uptake of gadolinium complexes (ICP-MS); assay type: cell-based, rat
Description: (§1) Cell culture. B16 melanoma cells (mouse) and MH3924A Morris hepatoma cells (rat) were obtained from the German Cancer Research Center (DKFZ) tumor bank and grown at 37° C. as stock cultures in RPMI 1640 supplemented with 10% fetal calf serum and 1% glutamine as standard medium under a 5% CO2 atmosphere (all components: Pan Biotech GmbH, Aidenbach, Germany). For contrast agent uptake studies 10^6 cells were inoculated into 25 cm^2 culture flasks (BD Biosciences, Bedford, USA) and grown for 24 h in 10 mL of the standard culture medium. Cells were then incubated for an additional 24 h (1 h for temperature dependence studies) with fresh medium containing 0, 1, 2.5, 5 or 10 μM of the selected gadolinium complex (three replicate flasks for each incubation). Afterwards the medium was removed, cells were trypsinated, washed twice, resuspended in culture medium and counted (typical yields: 3.5-6 million cells). For comparison 2.5×10^5 human melanocytes (Promo Cell, Heidelberg, Germany) were incubated for 24 h with melanocyte growth medium (Promo Cell, Heidelberg, Germany) containing 0, 1, 2.5, 5 or 10 μM of the selected gadolinium complex (two replicate flasks for each incubation). The work up procedure was as described above typically yielding 2.5×10^5 cells. Cultured human hepatocytes (Cytonet GmbH, Weinheim, Germany) embedded in a collagen matrix in a 12 well microtiter plate, with 6×10^5 viable cells per well were incubated for 24 h in hepatocyte growth medium (Cytonet GmbH, Weinheim, Germany) containing the same concentration series of selected gadolinium complexes. Afterwards the medium was removed, cells were separated using collagenase (Roche Diagnostics, Mannheim, Germany). After digestion the cells were washed twice with PBS, resuspended in culture medium and counted (typical yields: 6×10^5 cells per tube). The intracellular gadolinium content was determined by ICP-MS as described below.
(§2) ICP-MS. Samples containing the above mentioned number of harvested cells were digested with 50% concentrated HNO3 (Superselect; Merck, Darmstadt, Germany) under microwave heating with a Mars 5 apparatus (CEM GmbH, Kamp-Lintfort, Germany). To each sample 100 μL of an aqueous solution of rhodium chloride (1 μg/mL) were added so that Rh-103 could be used as an internal quantification standard. Gd-160 measurements were performed with the ICP-MS instrument mentioned above. The gadolinium concentrations were determined using standard curves created prior to cell analyses. For each uptake incubation condition triplicate cell samples were analyzed, and Gd content for each sample was recorded as the mean of two MS determinations.
(§3) Intracellular Uptake of Gadolinium Complexes. B16 melanoma and MH3924A hepatoma cells as well as human melanocytes and hepatocytes were incubated for 24 h in the presence of the gadolinium complexes shown in FIG. 1, using concentrations in the range of 1-10 μM. Incubations with the unsubstituted [Gd(DTPA)(H2O)]^2−complex (Magnevist®) served as controls. Following cell harvest and hydrolysis, inductively coupled plasma mass spectrometry (ICP-MS) with direct detection of gadolinium was used to quantitate complex uptake (triplicate cultures for each incubation).
(§4) Cell Uptake Studies. A493 (human kidney), B16 melanoma cells (mouse), HeLa (human cervix), MCF-7 (human breats), MH3924A (Morris hepatoma) cells (rat) and 3T3 NIH (mouse fibroblasts) were obtained from the DKFZ tumor cell collection. 3×10^6 cells of each cell type were grown for 24 hours in culture flasks. Afterwards they were incubated for 1 hour in 10 mL culture media containing 0, 10, 50 and 100 μM of Gd-2.2. Gd-3.2 or Gd-4.2. Afterwards the medium was removed, the cells were trypsinated, washed twice, resuspended in culture medium and counted. The gadolinium uptake was determined in triplicate. […] cells were incubated with 0, 1, 2.5, 5 and 10 μM of the Gd-1.2. and Gd-5.2. for 24 h. […]

B16 melanoma cells = assay: as above; assay type: cell-based, mouse; settings: for factor of higher cellular uptake in B16 melanoma vs. the hepatoma cells: 24-h incubation (FIG. 2A)
Description: as §1, §2, §3, §4

Complex stability = assay type: physicochemical; settings: method of Sherry et al.
Description: Complex stability. The stability constants were determined using a method of Sherry et al. (39).

[2] = system: subcutaneous MH3924A tumor; assay: MRI of ACI rats bearing a subcutaneous MH3924A tumor; assay type: in vivo, rat; settings: 24 h post Gd, 0.1 mmol/kg i.v., 2.35 T
Description: (§5) Animal models. For in vivo tumor studies 2×10^6 MH3924A tumor cells were injected subcutaneously into the right thigh of male ACI rats (Charles River, Sulzfeld, Germany) weighing 220 to 260 g. All animal experiments were performed in compliance with the German Animal Protection Laws (Permission 35-9185.81/G-7-03, Reg.-Praesidium, Karlsruhe, Germany).
MRI. At 25 days after inoculation, when tumors had reached a diameter of ca. 10-15 mm, the MR imaging experiments were initiated. ACI rats were anesthetized by intravenous injection of ketamin (Ketanest®, 0.1 mg/g body wt.; Parke-Davis, Berlin, Germany). Then a dose of 0.1 mmol/kg Magnevist® or Gadovist® (Schering, Berlin, Germany) or one of the synthesized agents Gd-3.1., Gd-5.1. or Gd-6.1. was injected intravenously into a lateral tail vein. For one experiment a higher dose (0.36 mmol/kg) of Magnevist® was used. Individual rats were examined by MRI at 1 h and 24 h post Gd, in the case of Magnevist® also at ca. 15 min post Gd. Proton imaging studies were performed at 2.35 T (100.3 MHz) with a Biospec 24/40 instrument (Bruker BioSpin MRI, Ettlingen, Germany). […] Two transaxial multislice imaging protocols were applied with a field of view of 70×70 mm, 128 time-domain data points, 96 phase-encoding steps, and 16 slices of 2 mm thickness. A multi-spin-echo sequence was used for proton-density and T2-weighted images (repetition time TR=2 s, 12 echoes with echo times TE of 8, 16, 24, . . . 96 ms, number of averages=1), and a spoiled gradient-echo sequence was used for T1-weighted imaging (TR=212 ms, TE=5 ms, flip angle=60°, number of averages=3). The data were Fourier transformed to give a 128×128 image matrix with 0.55 mm pixel resolution. Analogous T1-weighted images with coronal slices were acquired with a field of view of 80×80 mm and 3-mm slice thickness.
Imaging viewing, ROI analysis and export of TIFF files was performed with the freeware MRIcro from Chris Rorden (http://people.cas.sc.edu/rorden/mricro.html).

[3] = Biodistribution and excretion in tumor-bearing ACI rats; assay type: in vivo, rat
Description: as §5
Biodistribution and excretion data. At 14 days after tumor inoculation, when tumors had reached a diameter of ca. 5-6 mm, the biodistribution experiments were initiated. Each animal (210-250 g) was given an intravenous tail-vein injection of […] Magnevist® (Schering, Berlin, Germany) or […] of Gd-5.1. or Gd-6.1. 1 h and 24 hs post-injection (p.i.), the animals were weighed, sacrificed by cervical dislocation and dissected. Organs or tissues were blotted dry and weighed. Samples containing 100-500 mg of the tumor or organs were digested with concentrated HNO3 (Superselect; Merck, Darmstadt, Germany) and H2O2 under microwave heating with a Mars 5 apparatus (CEM GmbH, Kamp-Lintfort, Germany). To each sample 100 μL of an aqueous solution of rhodium chloride (1 μg/mL) were added so that Rh-103 could be used as an internal quantification standard. Gd-160 measurements were performed with the ICP-MS instrument mentioned above. The gadolinium concentrations were determined using standard curves created prior to tissue analyses. The results were expressed as % ID/g tissue. Urine and faeces were gathered in order to measure the excreted amount of Gd(III).

MH3924A cells = assay: Polyamine transport inhibition (binding inhibition assay with benzyl viologen); assay type: cell-based, rat; settings: 25 fold molar excess of benzyl viologen over 1 μM Gd-5.1 or Gd-6.1, MH3924A
Description: Polyamine transport inhibition. 10^6 MH3924A cells were inoculated into 25 cm^2 culture flasks (BD Biosciences, Bedford, USA) and grown for 24 h in 10 mL of the standard culture medium. Cells were then incubated for an additional 24 h with fresh medium containing 1 μM of Gd-5.1. or Gd-6.1. and 0, 1, 10, 25, 50 or 100 μM of the polyamine uptake inhibitor benzyl viologen (34, 35). Afterwards the medium was removed, cells were trypsinated, washed twice, resuspended in culture medium and counted (typical yields: 3.5-6 million cells). The gadolinium content of the cells was determined by ICP-MS as described below.
as §2

[4] = 1 h post i.v. injection, one ACI rat, scaled to Gd dose of 100 μmol/kg

Structure (SMILES): CCN(CC)CCNC(=O)c1ccc(NC(=O)CN(CCN(CCN(CC(=O)[O-])CC(=O)Nc2ccc(C(=O)NCCN(CC)CC)cc2)CC(=O)[O-])CC(=O)[O-])cc1.[Gd+3] [Gd-1.1]
intracellular uptake of gadolinium complex ([1]; MH3924A cells, 24-h incubation, 10 μM): ca. 0.062 fmol/cell | factor of higher cellular uptake in B16 melanoma vs. the hepatoma cells (B16 melanoma cells): ~2.2

Structure (SMILES): CCN(CC)CCNC(=O)c1ccc(NC(=O)CN2CCN(CC(=O)[O-])CCN(CC(=O)[O-])CCN(CC(=O)[O-])CC2)cc1.[Gd+3] [Gd-1.2]
relative uptake (in words) ([1]; B16 and MH3924A, 24 h incubation, 1-10 μM): sufficient for MRI imaging purposes but was the lowest of all tested complexes

Structure (SMILES): CCN(CC)CCNC(=O)CN(CCN(CCN(CC(=O)[O-])CC(=O)NCCN(CC)CC)CC(=O)[O-])CC(=O)[O-].[Gd+3] [Gd-2.1]
factor of higher cellular uptake in B16 melanoma vs. the hepatoma cells (B16 melanoma cells): ~1.72

Structure (SMILES): CCCCCCCCCNC(=O)CN(CCN(CCN(CC(=O)[O-])CC(=O)NCCN(CC)CC)CC(=O)[O-])CC(=O)[O-].[Gd+3] [Gd-4.1]
intracellular uptake (neglectable, near the detection limit) (B16 melanoma cells; 24-h incubation, cell line and concentration not stated): 0.0036 fmol/cell

Structure (SMILES): NCCCNCCCCN(CCCN)C(=O)CN1CCN(CC(=O)[O-])CCN(CC(=O)[O-])CCN(CC(=O)[O-])CC1.[Gd+3] [Gd-4.2]
relative uptake (in words) ([1]; MH3924A and B16 melanoma cells, 1 h incubation, 100 μM): comparable with the uptake of Gd-2.2., but somewhat lower; also recorded: lower than uptake of Gd-3.2. and Gd-2.2., but still sufficient for MRI imaging

complex stability constant (Complex stability): 4.22×10^15
Structure (SMILES): NCCCCN(CCCNCCCN)C(=O)CN(CCN(CCN(CC(=O)[O-])CC(=O)N(CCCCN)CCCNCCCN)CC(=O)[O-])CC(=O)[O-].[Gd+3] [Gd-5.2]
intracellular uptake of gadolinium complex ([1]; MH3924A, 24 h incubation, 1-10 μM (concentration not given)): 0.3 fmol/cell | intracellular uptake of gadolinium complex (B16 melanoma cells; B16 melanoma cells, 24 h incubation, 1-10 μM (concentration not given)): 0.03 fmol/cell

Gd concentration, Blood [3, 4]: 4.8 nmol/g | Gd concentration, Bone (femur) [3, 4]: 0.8 nmol/g | Gd concentration, Bone Marrow (femur) [3, 4]: 1.5 nmol/g | Gd concentration, Brain [3, 4]: 0.4 nmol/g | Gd concentration, Kidney (+urine) [3, 4]: 40.7 nmol/g | Gd concentration, Liver [3, 4]: 3.0 nmol/g | Gd concentration, Lung [3, 4]: 4.1 nmol/g | Gd concentration, Muscle (femur) [3, 4]: 1.3 nmol/g | Gd concentration, Small Intestine [3, 4]: 1.8 nmol/g | Gd concentration, Spleen [3, 4]: 1.5 nmol/g | Gd concentration, Tumor (MH3924A) [3, 4]: 3.1 nmol/g | Gd concentration, Urine (cumulative) [3, 4]: 25805.3 nmol/g | gadolinium found in the urine ([3]; one hour post injection, ACI rat): 88%
Structure (SMILES): CNC[C@H](O)[C@@H](O)[C@H](O)[C@H](O)CO.CNC[C@H](O)[C@@H](O)[C@H](O)[C@H](O)CO.O=C([O-])CN(CCN(CC(=O)[O-])CC(=O)O)CCN(CC(=O)[O-])CC(=O)O.[Gd+3] [Magnevist, gadopentetate dimeglumine, reference compound]
contrast ratio tumor vs. muscle tissue, T1 weighting [2]: no contrast with T1 weighting was achieved | intracellular uptake (below ICP-MS detection limit) ([1]; MH3924A cells, 24-h incubation, 1-10 μM, listed as [Gd(DTPA)(H2O)]^2−): < 0.0002 fmol/cell | intracellular uptake (below ICP-MS detection limit) (B16 melanoma cells; B16 melanoma cells, 24-h incubation, 1-10 μM): < 0.00002 fmol/cell | intracellular uptake (below ICP-MS detection limit) (B16 melanoma cells; B16 melanoma cells, 24-h incubation, 1-10 μM, listed as [Gd(DTPA)(H2O)]^2−): < 0.0002 fmol/cell

Structure (SMILES): O.O=C([O-])CN1CCN(CC(=O)[O-])CCN(CC(=O)[O-])CCN(CC(=O)[O-])CC1.[Gd+3] [[Gd(DOTA)(H2O)]^−, reference compound]
intracellular uptake (below ICP-MS detection limit) ([1]; MH3924A cells, control incubation of Example 2): < 0.0002 fmol/cell | intracellular uptake (below ICP-MS detection limit) (B16 melanoma cells; B16 melanoma cells, control incubation of Example 2): < 0.0002 fmol/cell

Structure (SMILES): c1ccc(C[n+]2ccc(-c3cc[n+](Cc4ccccc4)cc3)cc2)cc1 [benzyl viologen]
inhibition of Gd complex uptake (MH3924A cells): up to 90%
